Test results: patent US20060009478A1, “Methods for the treatment of back pain” (priority 2003, published 2006)

Test system: patients with moderate to severe chronic low back pain
Assay: Pain intensity (daily diary, 11-point numerical scale), low back pain study with titration and 12-week fixed-dose period
Assay type: in vivo, human
Details: for Pain intensity, change from baseline, MEAN (SD) / Pain intensity, percent change from baseline, MEAN (SD) / Pain intensity, actual value, MEAN (SD): LOCF imputation, average of last three days of dosing week; for Pain intensity, change from baseline, MEAN (SD) / Pain intensity, percent change from baseline, MEAN (SD) / Pain intensity, change from baseline, MAXIMUM / Pain intensity, change from baseline, MEDIAN / Pain intensity, change from baseline, MINIMUM / Pain intensity, percent change from baseline, MAXIMUM / Pain intensity, percent change from baseline, MEDIAN / Pain intensity, percent change from baseline, MINIMUM / Pain intensity, actual value, MEAN (SD) / Pain intensity, actual value, MAXIMUM / Pain intensity, actual value, MEDIAN / Pain intensity, actual value, MINIMUM: ITT population
Method: A multicenter, randomized, double-blind, active- and placebo-controlled study was designed and conducted.
In addition, adverse events and opioid-related adverse events were to be recorded in the daily diary.
For the pain intensity (PI) scale assessment, the patient was prompted with the question “How would you rate your overall pain intensity at this time?” and the PI score was recorded in the clinic at the Screening and Baseline Visits. Pain intensity was also assessed by prompting the patient with the questions “How would you rate your overall pain intensity during the past 24 hours?” and a daily PI diary score was recorded at bedtime. For both Pain Intensity prompts, the response was scored on an 11-point numerical scale (0=no pain and 10=severe pain).
The baseline average daily pain intensity score for each patient was calculated as the average of the daily bedtime pain intensity scores recorded during the 3 days immediately prior to baseline/start of titration period visit. The post-baseline average daily pain intensity scores were calculated as the average of the daily bedtime pain intensity scores recorded during the last 3 days of dosing prior to each visit. Missing data was imputed using the last-observation-carried-forward (LOCF) approach for efficacy variables in the fixed-dose period. If the first visit in the fixed-dose period was missing, the last value in the titration period was imputed forward. Unless indicated, all testing of statistical significance was two-sided, and a difference resulting in a p-value of equal to or less than 0.05 was considered statistically significant.
A primary efficacy endpoint was the percent change from baseline to the end of the fixed-dose period (Week 12) in average daily pain intensity. The percent change from baseline was calculated as [PI(baseline)−PI(fixed-dose)]/PI(baseline)*100. Data was summarized descriptively by treatment group. An analysis of covariance (ANCOVA) model including treatment and center as effects and baseline pain intensity as the covariate was used for global and pairwise inferences. Separate models were used to evaluate both the treatment by center and treatment by baseline pain intensity interaction terms.
A primary comparison of interest was oxycodone and naltrexone (e.g., BID or QID) versus oxycodone (e.g., QID). Secondary analyses included actual and percent change from baseline values of daily pain index, SF-12, and Oswestry disability index summarized descriptively by treatment group for both the titration and fixed-dose periods. Treatments were compared globally and in pairwise fashion at each visit in the fixed-dose period using an ANCOVA model that included treatment and center as effects and baseline pain intensity as the covariate. Separate models were used to evaluate both the treatment by center and treatment by baseline pain intensity interaction terms.

[1] = baseline to fixed dose week 1, LOCF
[2] = baseline to fixed dose week 2, LOCF
[3] = baseline to fixed dose week 3, LOCF
[4] = baseline to fixed dose week 4, LOCF
[5] = baseline to fixed dose week 5, LOCF
[6] = baseline to fixed dose week 6, LOCF

COc1ccc2c3c1O[C@H]1C(=O)CC[C@@]4(O)[C@@H](C2)N(C)CC[C@]314 [OXY QID, oxycodone]
Pain intensity, change from baseline, MEAN (SD) (baseline to fixed dose week 1): −3.6 (2.60)
Pain intensity, percent change from baseline, MEAN (SD) (baseline to fixed dose week 1): −47.5 (33.12) percent
Pain intensity, change from baseline, MAXIMUM [1]: 3.0
Pain intensity, change from baseline, MEDIAN [1]: −3.7
Pain intensity, change from baseline, MINIMUM [1]: −9.7
Pain intensity, percent change from baseline, MAXIMUM [1]: 42.9%
Pain intensity, percent change from baseline, MEDIAN [1]: −52.4%
Pain intensity, percent change from baseline, MINIMUM [1]: −100.0%
Pain intensity, change from baseline, MEAN (SD) (baseline to fixed dose week 2): −3.6 (2.59)
Pain intensity, percent change from baseline, MEAN (SD) (baseline to fixed dose week 2): −47.1 (32.56) percent
Pain intensity, change from baseline, MAXIMUM [2]: 3.0
Pain intensity, change from baseline, MEDIAN [2]: −3.7
Pain intensity, change from baseline, MINIMUM [2]: −9.7
Pain intensity, percent change from baseline, MAXIMUM [2]: 42.9%
Pain intensity, percent change from baseline, MEDIAN [2]: −50.0%
Pain intensity, percent change from baseline, MINIMUM [2]: −100.0%
Pain intensity, change from baseline, MEAN (SD) (baseline to fixed dose week 3): −3.7 (2.64)
Pain intensity, percent change from baseline, MEAN (SD) (baseline to fixed dose week 3): −47.9 (33.29) percent
Pain intensity, change from baseline, MAXIMUM [3]: 3.0
Pain intensity, change from baseline, MEDIAN [3]: −4.0
Pain intensity, change from baseline, MINIMUM [3]: −9.7
Pain intensity, percent change from baseline, MAXIMUM [3]: 42.9%
Pain intensity, percent change from baseline, MEDIAN [3]: −54.2%
Pain intensity, percent change from baseline, MINIMUM [3]: −100.0%
Pain intensity, change from baseline, MEAN (SD) (baseline to fixed dose week 4): −3.6 (2.68)
Pain intensity, percent change from baseline, MEAN (SD) (baseline to fixed dose week 4): −47.4 (33.84) percent
Pain intensity, change from baseline, MAXIMUM [4]: 3.0
Pain intensity, change from baseline, MEDIAN [4]: −4.0
Pain intensity, change from baseline, MINIMUM [4]: −9.7
Pain intensity, percent change from baseline, MAXIMUM [4]: 42.9%
Pain intensity, percent change from baseline, MEDIAN [4]: −53.3%
Pain intensity, percent change from baseline, MINIMUM [4]: −100.0%
Pain intensity, change from baseline, MEAN (SD) (baseline to fixed dose week 5): −3.6 (2.72)
Pain intensity, percent change from baseline, MEAN (SD) (baseline to fixed dose week 5): −47.4 (34.44) percent
Pain intensity, change from baseline, MAXIMUM [5]: 3.0
Pain intensity, change from baseline, MEDIAN [5]: −4.0
Pain intensity, change from baseline, MINIMUM [5]: −9.7
Pain intensity, percent change from baseline, MAXIMUM [5]: 42.9%
Pain intensity, percent change from baseline, MEDIAN [5]: −52.4%
Pain intensity, percent change from baseline, MINIMUM [5]: −100.0%
Pain intensity, change from baseline, MEAN (SD) (baseline to fixed dose week 6): −3.6 (2.70)
Pain intensity, change from baseline, MAXIMUM [6]: 3.0
Pain intensity, change from baseline, MEDIAN [6]: −4.0
Pain intensity, change from baseline, MINIMUM [6]: −9.7
Pain intensity, actual value, MEAN (SD) (fixed dose week 1): 3.9 (2.53)
Pain intensity, actual value, MAXIMUM (fixed dose week 1, LOCF): 10.0
Pain intensity, actual value, MEDIAN (fixed dose week 1, LOCF): 3.7
Pain intensity, actual value, MINIMUM (fixed dose week 1, LOCF): 0.0
Pain intensity, actual value, MEAN (SD) (fixed dose week 2): 3.9 (2.47)
Pain intensity, actual value, MAXIMUM (fixed dose week 2, LOCF): 10.0
Pain intensity, actual value, MEDIAN (fixed dose week 2, LOCF): 3.7
Pain intensity, actual value, MINIMUM (fixed dose week 2, LOCF): 0.0
Pain intensity, actual value, MEAN (SD) (fixed dose week 3): 3.9 (2.52)
Pain intensity, actual value, MAXIMUM (fixed dose week 3, LOCF): 10.0
Pain intensity, actual value, MEDIAN (fixed dose week 3, LOCF): 3.3
Pain intensity, actual value, MINIMUM (fixed dose week 3, LOCF): 0.0
Pain intensity, actual value, MEAN (SD) (fixed dose week 4): 3.9 (2.55)
Pain intensity, actual value, MAXIMUM (fixed dose week 4, LOCF): 10.0
Pain intensity, actual value, MEDIAN (fixed dose week 4, LOCF): 3.3
Pain intensity, actual value, MINIMUM (fixed dose week 4, LOCF): 0.0
Pain intensity, actual value, MEAN (SD) (fixed dose week 5): 3.9 (2.59)
Pain intensity, actual value, MAXIMUM (fixed dose week 5, LOCF): 10.0
Pain intensity, actual value, MEDIAN (fixed dose week 5, LOCF): 3.3
Pain intensity, actual value, MINIMUM (fixed dose week 5, LOCF): 0.0
Pain intensity, actual value, MEAN (SD) (fixed dose week 6): 3.9 (2.58)
Pain intensity percent change from baseline to fixed dose week 6, maximum (fixed dose week 6, LOCF, ITT): 42.9%
Pain intensity percent change from baseline to fixed dose week 6, mean (SD) (fixed dose week 6, LOCF, ITT): −47.5 (34.20) %
Pain intensity percent change from baseline to fixed dose week 6, median (fixed dose week 6, LOCF, ITT): −51.9%
Pain intensity percent change from baseline to fixed dose week 6, minimum (fixed dose week 6, LOCF, ITT): −100.0%
Pain intensity, actual value, MAXIMUM (fixed dose week 6, LOCF): 10.0
Pain intensity, actual value, MEDIAN (fixed dose week 6, LOCF): 3.3
Pain intensity, actual value, MINIMUM (fixed dose week 6, LOCF): 0.0
